# Laboratory results as given in ChEMBL document CHEMBL5678809, “Preclinical characterization of GLPG0634, a selective inhibitor of JAK1, for the treatment of inflammatory diseases” (J Immunol, 2013).
# The source made the active and inactive calls. The calls are words filed in the database; no cut-off is given here.
# Tests used:
# [1] = target: Tyrosine-protein kinase ITK/TSK (Homo sapiens) (UniProt Q08881); assay: Inhibition of Itk (unknown origin) at 1 uM relative to control
# [2] = target: Ribosomal protein S6 kinase alpha-1 (Homo sapiens) (UniProt Q15418); assay: Inhibition of Rsk1 (unknown origin) at 1 uM relative to control
# [3] = target: Casein kinase I isoform gamma-2 (Homo sapiens, UniProt P78368); assay: Inhibition of CSNK1G2 (unknown origin)
# [4] = system: Mus musculus; assay: Antiarthritic activity against collagen-induced arthritis DBA/1J mouse model assessed as reduction in IL-1beta expression at 50 mg/kg, po measured for 4 hrs; type: functional, organism-based
# [5] = Clearance in Sprague-Dawley rat at 1 mg/kg, iv measured upto 8 hrs by LC-MS analysis; type: ADME, organism-based; conditions: in vivo
# [6] = target: Serine/threonine-protein kinase mTOR (Homo sapiens) (UniProt P42345); assay: Inhibition of mTOR (unknown origin) at 1 uM relative to control
# [7] = AUC (0 to 24 hrs) in Sprague-Dawley rat at 5 mg/kg, po measured upto 24 hrs by LC-MS analysis; type: ADME, organism-based; conditions: in vivo
# [8] = target: Tyrosine-protein kinase TXK (Homo sapiens) (UniProt P42681); assay: Inhibition of Txk (unknown origin) at 1 uM relative to control
# [9] = target: MAP kinase-interacting serine/threonine-protein kinase 2 (Homo sapiens, UniProt Q9HBH9); assay: Inhibition of MNK2 (unknown origin) at 1 uM relative to control
# [10] = system: Mus musculus; assay: Antiarthritic activity against collagen-induced arthritis DBA/1J mouse model assessed as reduction in IL-6 expression at 50 mg/kg, po measured for 4 hrs; type: functional, organism-based
# [11] = target: Serine/threonine-protein kinase tousled-like 2 (Homo sapiens) (UniProt Q86UE8); assay: Inhibition of TLK2 (unknown origin) at 1 uM relative to control
# [12] = organism: Homo sapiens; assay: Inhibition of MRCK (unknown origin) at 1 uM relative to control
# [13] = target: Dual specificity tyrosine-phosphorylation-regulated kinase 2 (Homo sapiens) (UniProt Q92630); assay: Inhibition of DYRK2 (unknown origin) at 1 uM relative to control
# [14] = target: Tyrosine-protein kinase Fer (Homo sapiens) (UniProt P16591); assay: Inhibition of Fer (unknown origin) at 1 uM relative to control
# [15] = target: Serine/threonine-protein kinase NLK (Homo sapiens) (UniProt Q9UBE8); assay: Inhibition of NLK (unknown origin) at 1 uM relative to control
# [16] = target: Receptor-type tyrosine-protein kinase FLT3 (Homo sapiens, UniProt P36888); assay: Inhibition of Flt3 (unknown origin)
# [17] = system: Mus musculus; assay: Antiarthritic activity against collagen-induced arthritis DBA/1J mouse model assessed as reduction in TNFalpha expression at 50 mg/kg, po measured for 4 hrs; type: functional, organism-based
# [18] = target: Ephrin type-A receptor 8 (Homo sapiens) (UniProt P29322); assay: Inhibition of EphA8 (unknown origin) at 1 uM relative to control
# [19] = Cmax in CD-1 mouse at 1 mg/kg, iv measured upto 8 hrs by LC-MS analysis; type: ADME, organism-based; conditions: in vivo
# [20] = target: Ribosomal protein S6 kinase alpha-5 (Homo sapiens) (UniProt O75582); assay: Inhibition of MSK1 (unknown origin) at 1 uM relative to control
# [21] = target: Myotonin-protein kinase (Homo sapiens) (UniProt Q09013); assay: Inhibition of DMPK (unknown origin) at 1 uM relative to control
# [22] = target: Ephrin type-A receptor 2 (Homo sapiens) (UniProt P29317); assay: Inhibition of EphA2 (unknown origin) at 1 uM relative to control
# [23] = system: Mus musculus; assay: Antiarthritic activity against collagen-induced arthritis DBA/1J mouse model assessed as reduction in MCP-1 level in serum at 50 mg/kg, po measured for 4 hrs by luminex analysis; type: functional, organism-based
# [24] = target: Dual specificity mitogen-activated protein kinase kinase 7 (Homo sapiens) (UniProt O14733); assay: Inhibition of MKK7 (unknown origin) at 1 uM relative to control
# [25] = system: RPMI-8226; assay: Inhibition of human […] cell differentiation assessed as effect on IL-4 mRNA expression at 0.1 to 1 uM by RT-PCR analysis; type: functional, cell-based; conditions: dose 0.1-1 µM
# [26] = target: Platelet-derived growth factor receptor alpha (Homo sapiens) (UniProt P16234); assay: Inhibition of PDGFR2 (unknown origin) at 1 uM relative to control
# [27] = target: Ephrin type-A receptor 5 (Homo sapiens, UniProt P54756); assay: Inhibition of EPHA5 (unknown origin)
# [28] = system: Mus musculus; assay: Antiarthritic activity against collagen-induced arthritis DBA/1J mouse model assessed as reduction in Mx1 expression in paw at 50 mg/kg, po measured for 2 weeks by RT-PCR analysis; type: functional, organism-based
# [29] = Tmax in Dark Agouti rat at 3 to 30 mg/kg, po; type: ADME, organism-based; conditions: in vivo, dose 3-30 mg/kg
# [30] = Cmax in Sprague-Dawley rat at 5 mg/kg, po measured upto 24 hrs by LC-MS analysis; type: ADME, organism-based; conditions: in vivo
# [31] = system: Mus musculus; assay: Antiarthritic activity against collagen-induced arthritis DBA/1J mouse model assessed as reduction in infiltration of CD3 positive T cells in paw at 50 mg/kg, po administered twice daily for 14 days by immunohistochemistry analysis; type: functional, organism-based; conditions: T-cell, time 14.0 day
# [32] = target: Serine/threonine-protein kinase TAO1 (Homo sapiens) (UniProt Q7L7X3); assay: Inhibition of TAO1 (unknown origin) at 1 uM relative to control
# [33] = target: Rhodopsin kinase GRK7 (Homo sapiens) (UniProt Q8WTQ7); assay: Inhibition of GRK7 (unknown origin) at 1 uM relative to control
# [34] = target: Muscle, skeletal receptor tyrosine-protein kinase (Homo sapiens) (UniProt O15146); assay: Inhibition of MuSK (unknown origin) at 1 uM relative to control
# [35] = target: Serine/threonine-protein kinase N2 (Homo sapiens) (UniProt Q16513); assay: Inhibition of PRK2 (unknown origin) at 1 uM relative to control
# [36] = target: SRSF protein kinase 1 (Homo sapiens) (UniProt Q96SB4); assay: Inhibition of SRPK1 (unknown origin) at 1 uM relative to control
# [37] = system: Mus musculus; assay: Antiarthritic activity against collagen-induced arthritis DBA/1J mouse model assessed as reduction in IP-10 level in serum at 50 mg/kg, po measured for 4 hrs by luminex analysis; type: functional, organism-based
# [38] = target: Serine/threonine-protein kinase MARK1 (Homo sapiens) (UniProt Q9P0L2); assay: Inhibition of MARK1 (unknown origin) at 1 uM relative to control
# [39] = target: Serine/threonine-protein kinase haspin (Homo sapiens) (UniProt Q8TF76); assay: Inhibition of Haspin (unknown origin) at 1 uM relative to control
# [40] = target: PAS domain-containing serine/threonine-protein kinase (Homo sapiens) (UniProt Q96RG2); assay: Inhibition of PASK (unknown origin) at 1 uM relative to control
# [41] = target: Dual specificity protein kinase CLK2 (Homo sapiens) (UniProt P49760); assay: Inhibition of CLK2 (unknown origin) at 1 uM relative to control
# SRSF protein kinase 1 (Homo sapiens), sequence (Q96SB4 whole entry): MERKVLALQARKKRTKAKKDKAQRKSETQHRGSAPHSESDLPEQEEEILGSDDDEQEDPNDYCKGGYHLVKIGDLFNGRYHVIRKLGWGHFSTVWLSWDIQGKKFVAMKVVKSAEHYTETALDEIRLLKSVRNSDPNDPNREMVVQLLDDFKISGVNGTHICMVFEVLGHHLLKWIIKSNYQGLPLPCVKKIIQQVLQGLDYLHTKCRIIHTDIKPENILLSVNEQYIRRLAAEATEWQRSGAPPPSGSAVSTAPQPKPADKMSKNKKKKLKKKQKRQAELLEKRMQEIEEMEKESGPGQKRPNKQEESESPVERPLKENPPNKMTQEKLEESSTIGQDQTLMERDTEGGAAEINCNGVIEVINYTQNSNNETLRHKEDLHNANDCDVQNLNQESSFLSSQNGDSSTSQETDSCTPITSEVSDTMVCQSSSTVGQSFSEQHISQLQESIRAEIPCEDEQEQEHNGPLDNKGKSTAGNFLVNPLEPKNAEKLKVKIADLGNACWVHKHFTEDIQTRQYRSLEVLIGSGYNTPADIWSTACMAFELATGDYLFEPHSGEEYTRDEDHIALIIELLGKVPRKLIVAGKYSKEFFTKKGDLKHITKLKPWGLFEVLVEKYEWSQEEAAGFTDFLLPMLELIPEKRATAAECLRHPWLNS
# Tyrosine-protein kinase ITK/TSK (Homo sapiens), sequence (Q08881 whole entry): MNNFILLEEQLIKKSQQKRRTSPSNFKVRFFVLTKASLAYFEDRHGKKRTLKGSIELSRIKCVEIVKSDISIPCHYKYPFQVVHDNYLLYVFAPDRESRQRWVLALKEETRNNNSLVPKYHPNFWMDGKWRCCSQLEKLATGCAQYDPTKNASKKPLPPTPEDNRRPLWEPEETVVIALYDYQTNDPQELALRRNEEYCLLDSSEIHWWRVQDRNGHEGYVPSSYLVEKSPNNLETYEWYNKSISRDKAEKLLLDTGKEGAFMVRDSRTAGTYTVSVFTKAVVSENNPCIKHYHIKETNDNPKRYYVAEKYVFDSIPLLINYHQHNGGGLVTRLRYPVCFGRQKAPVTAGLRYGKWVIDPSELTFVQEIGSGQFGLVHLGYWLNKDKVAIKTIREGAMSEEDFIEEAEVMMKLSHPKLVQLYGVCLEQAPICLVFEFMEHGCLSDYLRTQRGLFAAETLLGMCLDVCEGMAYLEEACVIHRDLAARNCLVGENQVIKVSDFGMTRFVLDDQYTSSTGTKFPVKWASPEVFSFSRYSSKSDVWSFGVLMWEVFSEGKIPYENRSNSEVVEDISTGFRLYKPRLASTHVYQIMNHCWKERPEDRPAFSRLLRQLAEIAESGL
# Dual specificity mitogen-activated protein kinase kinase 7 (Homo sapiens), sequence (O14733 whole entry): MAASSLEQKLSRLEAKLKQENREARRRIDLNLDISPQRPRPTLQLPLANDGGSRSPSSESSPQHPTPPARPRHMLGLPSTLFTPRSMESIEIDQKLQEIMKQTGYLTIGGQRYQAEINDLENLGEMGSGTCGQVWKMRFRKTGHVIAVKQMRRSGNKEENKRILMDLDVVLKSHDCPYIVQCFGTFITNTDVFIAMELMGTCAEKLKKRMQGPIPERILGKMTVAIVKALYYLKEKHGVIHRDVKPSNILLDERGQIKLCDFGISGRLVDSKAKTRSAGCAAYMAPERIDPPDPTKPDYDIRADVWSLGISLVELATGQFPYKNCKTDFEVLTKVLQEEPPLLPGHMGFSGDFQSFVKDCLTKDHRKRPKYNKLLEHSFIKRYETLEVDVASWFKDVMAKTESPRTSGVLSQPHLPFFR
# Serine/threonine-protein kinase TAO1 (Homo sapiens), sequence (Q7L7X3 whole entry): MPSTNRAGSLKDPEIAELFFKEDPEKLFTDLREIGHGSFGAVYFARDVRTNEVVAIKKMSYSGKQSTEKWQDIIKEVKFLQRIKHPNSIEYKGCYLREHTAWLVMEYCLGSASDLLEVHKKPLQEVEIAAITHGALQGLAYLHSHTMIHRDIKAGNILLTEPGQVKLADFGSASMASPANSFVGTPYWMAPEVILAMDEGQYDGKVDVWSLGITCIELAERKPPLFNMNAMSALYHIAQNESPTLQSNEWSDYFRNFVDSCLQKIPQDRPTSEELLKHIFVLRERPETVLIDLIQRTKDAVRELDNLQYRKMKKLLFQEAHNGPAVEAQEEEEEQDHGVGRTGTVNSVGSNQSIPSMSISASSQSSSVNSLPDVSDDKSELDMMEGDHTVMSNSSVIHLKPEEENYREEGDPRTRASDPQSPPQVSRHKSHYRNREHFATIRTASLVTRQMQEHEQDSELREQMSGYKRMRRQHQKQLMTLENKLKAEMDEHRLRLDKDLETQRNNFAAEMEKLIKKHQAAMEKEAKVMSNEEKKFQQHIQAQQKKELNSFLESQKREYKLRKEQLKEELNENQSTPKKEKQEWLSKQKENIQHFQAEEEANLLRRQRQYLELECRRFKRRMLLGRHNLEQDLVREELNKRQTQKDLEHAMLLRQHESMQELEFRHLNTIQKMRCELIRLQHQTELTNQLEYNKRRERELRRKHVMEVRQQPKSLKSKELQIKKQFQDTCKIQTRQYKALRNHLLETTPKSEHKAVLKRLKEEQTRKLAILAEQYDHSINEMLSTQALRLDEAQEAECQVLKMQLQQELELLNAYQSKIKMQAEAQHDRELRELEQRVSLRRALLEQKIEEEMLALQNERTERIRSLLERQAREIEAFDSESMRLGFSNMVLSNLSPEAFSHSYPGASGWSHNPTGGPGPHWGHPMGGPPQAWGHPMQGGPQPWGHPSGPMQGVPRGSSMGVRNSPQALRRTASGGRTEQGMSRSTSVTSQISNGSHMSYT
# Tyrosine-protein kinase Fer (Homo sapiens), sequence (P16591 whole entry, looked up): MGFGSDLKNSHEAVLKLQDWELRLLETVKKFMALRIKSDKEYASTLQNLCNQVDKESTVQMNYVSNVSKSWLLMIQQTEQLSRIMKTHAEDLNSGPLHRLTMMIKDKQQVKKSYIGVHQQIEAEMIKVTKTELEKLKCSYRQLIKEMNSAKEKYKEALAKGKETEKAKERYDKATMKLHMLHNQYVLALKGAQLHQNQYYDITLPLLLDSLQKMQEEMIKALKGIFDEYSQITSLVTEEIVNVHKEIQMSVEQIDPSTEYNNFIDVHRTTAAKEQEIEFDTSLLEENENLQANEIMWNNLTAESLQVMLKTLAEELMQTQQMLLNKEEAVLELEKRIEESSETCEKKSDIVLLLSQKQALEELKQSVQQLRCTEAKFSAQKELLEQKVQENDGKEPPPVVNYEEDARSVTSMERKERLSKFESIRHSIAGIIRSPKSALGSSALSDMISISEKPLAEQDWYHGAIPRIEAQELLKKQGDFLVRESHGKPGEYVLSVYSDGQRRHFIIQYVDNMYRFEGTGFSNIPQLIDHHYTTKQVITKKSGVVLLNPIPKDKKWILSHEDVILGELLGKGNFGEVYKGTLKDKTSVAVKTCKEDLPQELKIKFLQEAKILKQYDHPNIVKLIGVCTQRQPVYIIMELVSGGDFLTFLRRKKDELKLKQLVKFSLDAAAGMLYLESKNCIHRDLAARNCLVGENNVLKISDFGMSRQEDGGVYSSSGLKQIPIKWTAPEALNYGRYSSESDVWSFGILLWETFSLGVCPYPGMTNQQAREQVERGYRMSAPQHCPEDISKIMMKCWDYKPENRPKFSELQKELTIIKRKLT
# Dual specificity tyrosine-phosphorylation-regulated kinase 2 (Homo sapiens), sequence (Q92630 whole entry): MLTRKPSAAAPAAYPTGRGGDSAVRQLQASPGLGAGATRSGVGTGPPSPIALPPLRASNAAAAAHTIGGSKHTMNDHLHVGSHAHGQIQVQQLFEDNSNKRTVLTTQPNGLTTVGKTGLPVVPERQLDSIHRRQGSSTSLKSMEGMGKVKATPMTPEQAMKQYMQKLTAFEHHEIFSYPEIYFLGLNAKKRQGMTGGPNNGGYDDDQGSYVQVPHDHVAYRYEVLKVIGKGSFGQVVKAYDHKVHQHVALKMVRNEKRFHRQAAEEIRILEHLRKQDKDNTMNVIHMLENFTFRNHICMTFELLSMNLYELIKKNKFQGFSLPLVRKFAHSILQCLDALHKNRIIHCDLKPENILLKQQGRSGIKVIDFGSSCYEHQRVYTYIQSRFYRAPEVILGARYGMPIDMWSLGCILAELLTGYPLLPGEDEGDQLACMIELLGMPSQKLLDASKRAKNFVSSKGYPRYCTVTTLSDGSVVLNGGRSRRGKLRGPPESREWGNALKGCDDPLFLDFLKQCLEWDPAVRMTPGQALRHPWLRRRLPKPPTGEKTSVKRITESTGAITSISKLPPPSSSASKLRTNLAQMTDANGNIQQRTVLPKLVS
# Serine/threonine-protein kinase haspin (Homo sapiens), sequence (Q8TF76 whole entry, the tested form may be a part): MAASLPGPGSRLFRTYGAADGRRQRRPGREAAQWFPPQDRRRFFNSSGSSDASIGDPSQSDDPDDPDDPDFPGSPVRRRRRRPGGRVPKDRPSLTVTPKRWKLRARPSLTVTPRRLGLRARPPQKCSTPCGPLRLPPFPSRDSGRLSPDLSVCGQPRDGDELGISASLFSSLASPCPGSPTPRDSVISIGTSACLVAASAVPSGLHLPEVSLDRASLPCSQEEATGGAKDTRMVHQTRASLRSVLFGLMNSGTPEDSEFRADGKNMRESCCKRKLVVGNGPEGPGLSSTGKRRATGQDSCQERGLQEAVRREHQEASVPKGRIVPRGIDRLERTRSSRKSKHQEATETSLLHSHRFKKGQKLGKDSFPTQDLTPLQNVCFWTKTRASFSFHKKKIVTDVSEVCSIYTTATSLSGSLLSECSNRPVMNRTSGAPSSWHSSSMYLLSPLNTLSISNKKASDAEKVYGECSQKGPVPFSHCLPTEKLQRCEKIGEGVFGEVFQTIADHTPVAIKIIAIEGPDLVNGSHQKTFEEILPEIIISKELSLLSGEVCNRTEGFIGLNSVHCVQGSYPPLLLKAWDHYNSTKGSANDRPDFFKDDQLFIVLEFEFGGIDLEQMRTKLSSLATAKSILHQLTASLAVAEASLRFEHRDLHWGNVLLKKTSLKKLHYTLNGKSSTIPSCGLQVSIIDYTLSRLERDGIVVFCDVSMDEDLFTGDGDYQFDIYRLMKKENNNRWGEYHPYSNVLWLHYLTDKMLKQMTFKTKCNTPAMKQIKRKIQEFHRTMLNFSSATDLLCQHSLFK
smiles,measurement,setting,value
O=C(Nc1nc2cccc(-c3ccc(CN4CCS(=O)(=O)CC4)cc3)n2n1)C1CC1 [FILGOTINIB],inhibition,[1],-4%
same,inhibition,[2],2%
same,IC50,[3],> 10 µM
same,Activity,[4],Active
same,clearance,[5],23.3 mL/min/kg
same,inhibition,[6],-7%
same,AUC,[7],1680 ng·h/mL
same,inhibition,[8],14%
same,inhibition,[9],-10%
same,Activity,[10],Active
same,inhibition,[11],-6%
same,inhibition,[12],-3%
same,inhibition,[13],-1%
same,inhibition,[14],-5%
same,inhibition,[15],-6%
same,IC50,[16],0.338 µM
same,Activity,[17],Active
same,inhibition,[18],1%
same,Cmax,[19],637 ng/mL
same,inhibition,[20],-1%
same,inhibition,[21],-4%
same,inhibition,[22],-9%
same,Activity,[23],Active
same,inhibition,[24],13%
same,inhibition,[25],Active
same,inhibition,[26],-10%
same,IC50,[27],> 10 µM
same,Activity,[28],Active
same,Tmax,[29],~1 h
same,Cmax,[30],310 ng/mL
same,Activity,[31],Active
same,inhibition,[32],-4%
same,inhibition,[33],-8%
same,inhibition,[34],-3%
same,inhibition,[35],-8%
same,inhibition,[36],4%
same,Activity,[37],Active
same,inhibition,[38],7%
same,inhibition,[39],-6%
same,inhibition,[40],1%
same,inhibition,[41],10%
